Data: the supplement of paper PMC11208160
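Also: IS621 bridge recombinase in Escherichia coli cells against a fixed T5 target plasmid.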

Test: recombinant UMI read abundance after kanamycin selection (control-corrected) (log10(CPM+1)); higher = more efficient recombination; extreme values may be limits of the assay; sequences stand for … in AGTGCAGAGAAAATCGGCCAGTTTTCTCTGCCTGCAGTCCGCATGCCGTGGGACCCCTTGGGTTCTAACCTGTTGCCTAGATTTATGCAGCGGACTGCCTTTCTCCCAAAGTGATAAACCGG…AGGTTGGTTTCACT; site = the 11-nt donor
Summary of the method: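 Sequenced counts of recombinant UMIs were turned into CPM, averaged across replicates and scaled with control-derived factors. The reported figure is log10(CPM+1). Those UMIs, each 12 nt long, tagged donor and donor-binding-loop pairs on a plasmid with a promoterless kanamycin gene, screened as a pool in Escherichia coli with IPTG (0.07 mM) plus kanamycin or without selection.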
With “GAGCTCACATGGACCGGTTTTCCCGGTAATCCGTATTTGAC (site GAGCTCACTGT)” the “recombinant UMI read abundance (log10)” value was 2.53. For “GAGCTCACATGGACCGGTTTTCCCGGTAATCCGTATTTGAC (site GAGCTCACTTT)”, the “recombinant UMI read abundance (log10)” value was 0.00766. With “GAGCTCACATGGACCGGTTTTCCCGGTAATCCGTATTTGTT (site GAGCTCACTAA)” the “recombinant UMI read abundance (log10)” value was 1.53. With “GAGCTCACATGGACCGGTTTTCCCGGTAATCCGTATTTGTT (site GAGCTCACTAC)” the “recombinant UMI read abundance (log10)” value was 0.0125. In the case of “GAGCTCACATGGACCGGTTTTCCCGGTAATCCGTATTTGTT (site GAGCTCACTAG)”, the “recombinant UMI read abundance (log10)” value is reported as 2.34. With “GAGCTCACATGGACCGGTTTTCCCGGTAATCCGTATTTGTT (site GAGCTCACTAT)” the “recombinant UMI read abundance (log10)” value was 1.08. For “GAGGATGCATGGACCGGTTTTCCCGGTAATCCGTATTTGTA (site GAGGATGCTTA)”, the “recombinant UMI read abundance (log10)” value was 2.8. In the case of “GAGGCTACATGGACCGGTTTTCCCGGTAATCCGTATTTGTG (site GAGGCTACTCA)”, the “recombinant UMI read abundance (log10)” value is reported as 1.4. With “GAGGGTACATGGACCGGTTTTCCCGGTAATCCGTATTTGGC (site GAGGGTACTGC)” the “recombinant UMI read abundance (log10)” value was 2.1. With “GAGGTACCATGGACCGGTTTTCCCGGTAATCCGTATTTGTA (site GAGGTACCTTA)” the “recombinant UMI read abundance (log10)” value was 0.00435. For “GAGGTATCATGGACCGGTTTTCCCGGTAATCCGTATTTGCT (site GAGGTATCTAG)”, the “recombinant UMI read abundance (log10)” value was 2.57. For “GAGGTCACATGGACCGGTTTTCCCGGTAATCCGTATTTGAT (site GAGATCACTAT)”, the “recombinant UMI read abundance (log10)” value was 1.36. With “GAGGTCACATGGACCGGTTTTCCCGGTAATCCGTATTTGAT (site GAGCTCACTAT)” the “recombinant UMI read abundance (log10)” value was 0.00889. In the case of “GAGGTCACATGGACCGGTTTTCCCGGTAATCCGTATTTGAT (site GAGGTCACTAT)”, the “recombinant UMI read abundance (log10)” value is reported as 1.35. For “GAGGTCACATGGACCGGTTTTCCCGGTAATCCGTATTTGAT (site GAGTTCACTAT)”, the “recombinant UMI read abundance (log10)” value was 0. For “GAGTATCCATGGACCGGTTTTCCCGGTAATCCGTATTTGCT (site GAATATCCTAG)”, the “recombinant UMI read abundance (log10)” value was 0. For “GAGTATCCATGGACCGGTTTTCCCGGTAATCCGTATTTGCT (site GACTATCCTAG)”, the “recombinant UMI read abundance (log10)” value was 0.506. For “GAGTATCCATGGACCGGTTTTCCCGGTAATCCGTATTTGCT (site GAGTATCCTAG)”, the “recombinant UMI read abundance (log10)” value was 0.75. With “GAGTATCCATGGACCGGTTTTCCCGGTAATCCGTATTTGCT (site GATTATCCTAG)” the “recombinant UMI read abundance (log10)” value was 0. For “GAGTCCTCATGGACCGGTTTTCCCGGTAATCCGTATTTGCC (site GAGTCCTCTGG)”, the “recombinant UMI read abundance (log10)” value was 0. In the case of “GAGTCGACATGGACCGGTTTTCCCGGTAATCCGTATTTGGG (site AAGTCGACTCC)”, the “recombinant UMI read abundance (log10)” value is reported as 0.257. For “GAGTCGACATGGACCGGTTTTCCCGGTAATCCGTATTTGGG (site CAGTCGACTCC)”, the “recombinant UMI read abundance (log10)” value was 0.0177. In the case of “GAGTCGACATGGACCGGTTTTCCCGGTAATCCGTATTTGGG (site GAGTCGACTCC)”, the “recombinant UMI read abundance (log10)” value is reported as 0.044. For “GAGTCGACATGGACCGGTTTTCCCGGTAATCCGTATTTGGG (site TAGTCGACTCC)”, the “recombinant UMI read abundance (log10)” value was 0.0071. For “GAGTGCCCATGGACCGGTTTTCCCGGTAATCCGTATTTGCC (site GAGTGCCCTGG)”, the “recombinant UMI read abundance (log10)” value was 0. With “GAGTTTCCATGGACCGGTTTTCCCGGTAATCCGTATTTGCG (site GAGTTTCCTCG)” the “recombinant UMI read abundance (log10)” value was 0.572. With “GATAATCCATGGACCGGTTTTCCCGGTAATCCGTATTTGCT (site GATAATCCTAG)” the “recombinant UMI read abundance (log10)” value was 0. For “GATAATCCATGGACCGGTTTTCCCGGTAATCCGTATTTGCT (site GATCATCCTAG)”, the “recombinant UMI read abundance (log10)” value was 0. With “GATAATCCATGGACCGGTTTTCCCGGTAATCCGTATTTGCT (site GATGATCCTAG)” the “recombinant UMI read abundance (log10)” value was 0. For “GATAATCCATGGACCGGTTTTCCCGGTAATCCGTATTTGCT (site GATTATCCTAG)”, the “recombinant UMI read abundance (log10)” value was 0. With “GATACGTCATGGACCGGTTTTCCCGGTAATCCGTATTTGGT (site GATACGTCTAC)” the “recombinant UMI read abundance (log10)” value was 1.36. In the case of “GATAGAACATGGACCGGTTTTCCCGGTAATCCGTATTTGGC (site GATAGAACTGC)”, the “recombinant UMI read abundance (log10)” value is reported as 1.7. With “GATAGAACATGGACCGGTTTTCCCGGTAATCCGTATTTGGC (site GCTAGAACTGC)” the “recombinant UMI read abundance (log10)” value was 0. With “GATAGAACATGGACCGGTTTTCCCGGTAATCCGTATTTGGC (site GGTAGAACTGC)” the “recombinant UMI read abundance (log10)” value was 0. With “GATAGAACATGGACCGGTTTTCCCGGTAATCCGTATTTGGC (site GTTAGAACTGC)” the “recombinant UMI read abundance (log10)” value was 0. In the case of “GATCAGACATGGACCGGTTTTCCCGGTAATCCGTATTTGAA (site GATCAGACTTT)”, the “recombinant UMI read abundance (log10)” value is reported as 0.431. With “GATCAGCCATGGACCGGTTTTCCCGGTAATCCGTATTTGCC (site GATCAGCCTGG)” the “recombinant UMI read abundance (log10)” value was 0.649. With “GATCAGCCATGGACCGGTTTTCCCGGTAATCCGTATTTGGT (site GATCAGCCTAC)” the “recombinant UMI read abundance (log10)” value was 0.00497. For “GATCGGACATGGACCGGTTTTCCCGGTAATCCGTATTTGAC (site GATAGGACTGT)”, the “recombinant UMI read abundance (log10)” value was 0. With “GATCGGACATGGACCGGTTTTCCCGGTAATCCGTATTTGAC (site GATCGGACTGT)” the “recombinant UMI read abundance (log10)” value was 1.11. In the case of “GATCGGACATGGACCGGTTTTCCCGGTAATCCGTATTTGAC (site GATGGGACTGT)”, the “recombinant UMI read abundance (log10)” value is reported as 0. With “GATCGGACATGGACCGGTTTTCCCGGTAATCCGTATTTGAC (site GATTGGACTGT)” the “recombinant UMI read abundance (log10)” value was 0. With “GATCTCACATGGACCGGTTTTCCCGGTAATCCGTATTTGAT (site GAACTCACTAT)” the “recombinant UMI read abundance (log10)” value was 0.831. With “GATCTCACATGGACCGGTTTTCCCGGTAATCCGTATTTGAT (site GACCTCACTAT)” the “recombinant UMI read abundance (log10)” value was 0.0659. For “GATCTCACATGGACCGGTTTTCCCGGTAATCCGTATTTGAT (site GAGCTCACTAT)”, the “recombinant UMI read abundance (log10)” value was 0.00697. For “GATCTCACATGGACCGGTTTTCCCGGTAATCCGTATTTGAT (site GATCTCACTAT)”, the “recombinant UMI read abundance (log10)” value was 0.574. For “GATCTTCCATGGACCGGTTTTCCCGGTAATCCGTATTTGAT (site GATCTTCCTAT)”, the “recombinant UMI read abundance (log10)” value was 0.048. For “GATGCAACATGGACCGGTTTTCCCGGTAATCCGTATTTGAT (site GATGCAACTAT)”, the “recombinant UMI read abundance (log10)” value was 0.357. For “GATGTAGCATGGACCGGTTTTCCCGGTAATCCGTATTTGCG (site GATGTAGCTCG)”, the “recombinant UMI read abundance (log10)” value was 1.72. For “GATGTGTCATGGACCGGTTTTCCCGGTAATCCGTATTTGAA (site GATGTGTCTTT)”, the “recombinant UMI read abundance (log10)” value was 2.22. For “GATGTTGCATGGACCGGTTTTCCCGGTAATCCGTATTTGCT (site GATGTTGCTAG)”, the “recombinant UMI read abundance (log10)” value was 2.51. In the case of “GATTAAACATGGACCGGTTTTCCCGGTAATCCGTATTTGCG (site GATTAAACTCG)”, the “recombinant UMI read abundance (log10)” value is reported as 0.992. For “GATTAGACATGGACCGGTTTTCCCGGTAATCCGTATTTGAC (site GATTAGACTGT)”, the “recombinant UMI read abundance (log10)” value was 2.76. With “GATTAGACATGGACCGGTTTTCCCGGTAATCCGTATTTGAC (site GATTCGACTGT)” the “recombinant UMI read abundance (log10)” value was 0. For “GATTAGACATGGACCGGTTTTCCCGGTAATCCGTATTTGAC (site GATTGGACTGT)”, the “recombinant UMI read abundance (log10)” value was 0. For “GATTAGACATGGACCGGTTTTCCCGGTAATCCGTATTTGAC (site GATTTGACTGT)”, the “recombinant UMI read abundance (log10)” value was 0. With “GATTATGCATGGACCGGTTTTCCCGGTAATCCGTATTTGGA (site AATTATGCTTC)” the “recombinant UMI read abundance (log10)” value was 0.871.
